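Test compounds were applied to cells in 96-well plates for 48 hours at 5 doses. GI50 = concentration required for 50% inhibition of growth.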 Calls of active or inactive are those of the source. No stated cut-off is given here; in the data, active = GI50 up to about 1.1 µM and inactive = higher.
How the values were obtained:
Experiment in all cases: NCI tumour cell line growth inhibition, 48 h
[1] = test system: OVCAR-8
[2] = test system: OVCAR-4
[3] = test system: K562
[4] = test system: HCC 2998
[5] = test system: COLO 205
[6] = test system: RPMI-8226
[7] = test system: ACHN
[8] = test system: T47D
[9] = test system: OVCAR-5
[10] = test system: CCRF-CEM
[11] = test system: SF-539
[12] = test system: SNB-19
[13] = test system: RXF 393
[14] = test system: HT-29
[15] = test system: LOX IMVI
[16] = test system: SR
[17] = test system: SK-OV-3
[18] = test system: MDA-N
[19] = test system: IGROV-1
[20] = test system: SK-MEL-28

SMILES: Cc1nc2c(=O)n(C)c(=O)n(C)c2o1
- GI50 [1]: > 100 µM (inactive)
- GI50 [2]: > 100 µM (inactive)
- GI50 [3]: > 100 µM (inactive)
- GI50 [4]: > 100 µM (inactive)
- GI50 [5]: > 100 µM (inactive)
- GI50 [6]: > 100 µM (inactive)
- GI50 [7]: > 100 µM (inactive)
- GI50 [8]: > 100 µM (inactive)
- GI50 [9]: > 100 µM (inactive)
- GI50 [10]: > 100 µM (inactive)
- GI50 [11]: > 100 µM (inactive)
- GI50 [12]: > 100 µM (inactive)
- GI50 [13]: > 100 µM (inactive)
- GI50 [14]: > 100 µM (inactive)
- GI50 [15]: > 100 µM (inactive)
- GI50 [16]: > 100 µM (inactive)
- GI50 [17]: > 100 µM (inactive)
- GI50 [18]: > 100 µM (inactive)
- GI50 [19]: > 100 µM (inactive)

SMILES: O=C1c2ccccc2C(=O)N1CCCC(=O)n1cc(F)c(=O)[nH]c1=O
- GI50 [1]: 10.7 µM (inactive)
- GI50 [2]: > 100 µM (inactive)
- GI50 [3]: 24.9 µM (inactive)
- GI50 [4]: 0.82 µM (active)
- GI50 [5]: 6.62 µM (inactive)
- GI50 [6]: 5.06 µM (inactive)
- GI50 [7]: 15.8 µM (inactive)
- GI50 [8]: > 33.7 µM (inactive)
- GI50 [10]: 18.6 µM (inactive)
- GI50 [11]: 7 µM (inactive)
- GI50 [12]: 49.1 µM (inactive)
- GI50 [13]: > 47.4 µM (inactive)
- GI50 [14]: 4.54 µM (inactive)
- GI50 [15]: 6.18 µM (inactive)
- GI50 [16]: 5.53 µM (inactive)
- GI50 [17]: > 91 µM (inactive)
- GI50 [18]: 16.1 µM (inactive)
- GI50 [20]: > 100 µM (inactive)
- GI50 [19]: 3.4 µM (inactive)

SMILES: Nc1nc(I)nc2c1ncn2C1OC(COS(N)(=O)=O)C(O)C1O (configuration not stated)
- GI50 [1]: < 0.01 µM (active)
- GI50 [2]: < 0.01 µM (active)
- GI50 [3]: < 0.01 µM (active)
- GI50 [4]: < 0.0127 µM (active)
- GI50 [5]: < 0.01 µM (active)
- GI50 [6]: 0.0179 µM (active)
- GI50 [7]: < 0.0117 µM (active)
- GI50 [8]: < 0.01 µM (active)
- GI50 [9]: < 0.01 µM (active)
- GI50 [10]: < 0.01 µM (active)
- GI50 [11]: < 0.01 µM (active)
- GI50 [12]: < 0.01 µM (active)
- GI50 [13]: 0.0148 µM (active)
- GI50 [14]: < 0.0106 µM (active)
- GI50 [15]: < 0.0116 µM (active)
- GI50 [16]: < 0.01 µM (active)
- GI50 [17]: < 0.0166 µM (active)
- GI50 [18]: < 0.01 µM (active)
- GI50 [20]: < 0.01 µM (active)
- GI50 [19]: 0.0128 µM (active)

SMILES: O=C(O)Cc1cccc2c1OC(c1ccccc1)C(C(=O)c1ccccc1)C2=O (configuration not stated)
- GI50 [1]: 46.6 µM (inactive)
- GI50 [3]: 32.7 µM (inactive)
- GI50 [4]: 20.4 µM (inactive)
- GI50 [5]: 67.6 µM (inactive)
- GI50 [6]: 33.6 µM (inactive)
- GI50 [7]: 40.3 µM (inactive)
- GI50 [8]: 10.1 µM (inactive)
- GI50 [9]: > 100 µM (inactive)
- GI50 [10]: 41.2 µM (inactive)
- GI50 [11]: 51.5 µM (inactive)
- GI50 [12]: 45.9 µM (inactive)
- GI50 [13]: > 100 µM (inactive)
- GI50 [14]: > 10 µM (inactive)
- GI50 [15]: 83.8 µM (inactive)
- GI50 [16]: 39.3 µM (inactive)
- GI50 [17]: 2.07 µM (inactive)
- GI50 [18]: 33.8 µM (inactive)
- GI50 [20]: 65.3 µM (inactive)
- GI50 [19]: 38.7 µM (inactive)

SMILES: C[C@H]1[C@H](C)CC[C@]2(C(=O)OC3OC(CO)C(O)C(O)C3O)CC[C@]3(C)C(=CC[C@@H]4[C@@]5(C)C[C@@H](O)[C@@H]6OC(=O)c7cc(O)c(O)c(O)c7-c7c(cc(O)c(O)c7O)C(=O)OC[C@@]6(CO)[C@@H]5CC[C@]43C)[C@H]12 (some centres not stated)
- GI50 [1]: 57.1 µM (inactive)
- GI50 [2]: 23.9 µM (inactive)
- GI50 [3]: 32.7 µM (inactive)
- GI50 [4]: > 100 µM (inactive)
- GI50 [5]: > 100 µM (inactive)
- GI50 [6]: 98.2 µM (inactive)
- GI50 [7]: > 100 µM (inactive)
- GI50 [8]: > 100 µM (inactive)
- GI50 [9]: > 75.3 µM (inactive)
- GI50 [10]: 43.5 µM (inactive)
- GI50 [11]: > 100 µM (inactive)
- GI50 [12]: > 100 µM (inactive)
- GI50 [13]: > 100 µM (inactive)
- GI50 [14]: 25.4 µM (inactive)
- GI50 [15]: 17.8 µM (inactive)
- GI50 [16]: 38.1 µM (inactive)
- GI50 [17]: 98.6 µM (inactive)
- GI50 [18]: 21.5 µM (inactive)
- GI50 [20]: > 100 µM (inactive)
- GI50 [19]: > 100 µM (inactive)

SMILES: Cc1cc(S(=O)(=O)/N=C(\NN)NNc2cccc(C(F)(F)F)n2)c(S)cc1Cl
- GI50 [1]: 24.8 µM (inactive)
- GI50 [2]: 14.4 µM (inactive)
- GI50 [3]: 22.7 µM (inactive)
- GI50 [4]: 16.5 µM (inactive)
- GI50 [5]: 19.5 µM (inactive)
- GI50 [6]: 32.1 µM (inactive)
- GI50 [7]: 21.4 µM (inactive)
- GI50 [8]: 17.8 µM (inactive)
- GI50 [9]: 14.9 µM (inactive)
- GI50 [10]: 23.3 µM (inactive)
- GI50 [11]: 21.5 µM (inactive)
- GI50 [12]: 24.3 µM (inactive)
- GI50 [13]: 29 µM (inactive)
- GI50 [14]: 19.7 µM (inactive)
- GI50 [15]: 18.9 µM (inactive)
- GI50 [16]: 21.3 µM (inactive)
- GI50 [17]: 25.4 µM (inactive)
- GI50 [18]: 14.8 µM (inactive)
- GI50 [20]: 15 µM (inactive)
- GI50 [19]: > 10 µM (inactive)

SMILES: CC1=CC(=O)[C@@H](O)[C@]2(C)[C@H]3[C@@]4(O)OC[C@]35[C@H]([C@@H](C)[C@H]4O)[C@@H](OC(=O)C(C)(C)CO)C(=O)O[C@@H]5C[C@@H]12
- GI50 [1]: 0.19 µM (active)
- GI50 [2]: 0.122 µM (active)
- GI50 [3]: 0.0123 µM (active)
- GI50 [4]: 0.0476 µM (active)
- GI50 [5]: 1.73 µM (inactive)
- GI50 [6]: 0.0158 µM (active)
- GI50 [7]: 0.208 µM (active)
- GI50 [8]: 0.0209 µM (active)
- GI50 [9]: 0.701 µM (active)
- GI50 [10]: 0.0362 µM (active)
- GI50 [11]: < 0.0153 µM (active)
- GI50 [12]: 0.05 µM (active)
- GI50 [13]: 0.237 µM (active)
- GI50 [14]: 0.207 µM (active)
- GI50 [15]: < 0.012 µM (active)
- GI50 [16]: 0.0155 µM (active)
- GI50 [17]: 4.31 µM (inactive)
- GI50 [18]: 0.0769 µM (active)
- GI50 [20]: 0.0478 µM (active)
- GI50 [19]: < 0.0165 µM (active)

Reference: ChEMBL document CHEMBL1201862, “PubChem BioAssay data set” (2004)
